The source of these data is patent US10342804B2, “Steroid compound for use in the treatment of hepatic encephalopathy” (Umecrine Cognition AB, priority 2014, dated 2019).

In one data set the test system is PCS rats. The data set can be described thus: Circadian rhythms of spontaneous locomotor activity (actimeter), PCS rats (Example 11). The data set is classed as in vivo, rat. Here is the method:
Male Wistar rats (220-240 g) were anesthetized with isoflurane, and an end-to side porta-caval anastomosis was performed as described by Lee and Fisher (Surgery, 1961, 50, 668-672).
Rats that were subjected to the porta-caval anastomosis procedure are herein referred to as “PCS rats”.
3α-ethynyl-3β-hydroxyandrostan-17-one oxime in sesame oil was administered by subcutaneous injections in the back of the rats, once daily. Two different sets of experiments were performed in hyperammonemic rats. In the first set four groups of rats were used: 1) control rats injected with vehicle; 2) hyperammonemic rats injected with vehicle; 3) control rats injected with 20 mg/Kg of 3α-ethynyl-3β-hydroxyandrostan-17-one oxime and 4) hyperammonemic rats injected with 20 mg/Kg of 3α-ethynyl-3β-hydroxyandrostan-17-one oxime.
For the experiments using PCS rats, the following groups of rats were used: 1) Sham rats injected with vehicle; 2) PCS rats injected with vehicle; 3-4) PCS rats injected with 0.7 or 2.5 mg/Kg of 3α-ethynyl-3β-hydroxyandrostan-17-one oxime. The number of rats used in each experiment is either shown in the corresponding Figure or given in the description of the corresponding Figure.
Motor activity was measured using an actimeter (Med Associates, S t. Albans, Vt.). Rats were placed individually in an open-field activity chamber (43×43×31 cm), and motor activity was recorded continuously for 14 days in conditions of light-dark (L:D), 12 h:12 h. Data were recorded at intervals of 5 minutes. Motor activity was detected by arrays of infrared motion detectors, placed in three directions, x, y and z. One ambulatory count is recorded by the apparatus when the rat interrupts three consecutive infrared detectors, in x or y position. A vertical count is recorded when rat interrupts infrared detectors in z position. The software allows measuring different parameter of motor activity, such as ambulatory counts or vertical counts (Ahabrach et al. Journal of Neuroscience Research, 2010, 88, 1605-14).

The next data set relates to hyperammonemic rats. As to the kind of experiment: Spatial learning in the Radial maze, chronic hyperammonemia model (Example 2). The data set is classed as in vivo, rat. The note with it: 20 mg/kg s.c. once daily, 6th-7th week of treatment. The source says:
In this study an animal model of chronic hyperammonemia was used that reproduces many of the cognitive and motor alterations present in hepatic encephalopathy. Rats were fed with ammonia in their food and after two weeks with ammonia enriched food they developed symptoms of hepatic encephalopathy. The beam walking test was made during the 3rd and 4th week of 3α-ethynyl-3β-hydroxyandrostan-17-one oxime treatment while the Morris Water maze test was made during 4th-5th week of 3α-ethynyl-3β-hydroxyandrostan-17-one oxime treatment and the Radial maze test was made during 6th-7th week of 3α-ethynyl-3β-hydroxyandrostan-17-one oxime treatment.
The study was divided into two series with animals (male Wistar rats), each series included the following groups; Controls treated with vehicle (CV, n=8 per series), Controls treated with 3α-ethynyl-3β-hydroxyandrostan-17-one oxime (C+GAM, n=8 per series), hyperammonemic rats treated with vehicle (HAV, n=8 per series), hyperammonemic rats treated with 3α-ethynyl-3β-hydroxyandrostan-17-one oxime (HA+GAM, n=8 per series). […]
Training in the radial maze was composed of five blocks of three trials each, performed on ten consecutive days. […] The number of spatial reference errors and working memory were calculated and expressed as number of reference and working errors per block. […]

A short description of data set [1]: Fraction unbound in brain homogenates by dialysis. In kind it is in vitro ADME. The note with it: rat, brain homogenate, read-out: Fraction unbound (Fub) in brain homogenates. How it is done:
At the end of the treatment period plasma was collected from the tail vein, and after sacrifice by decapitation brains were collected and immediately frozen on dry ice. For analysis of 3α-ethynyl-3β-hydroxyandrostan-17-one oxime exposure, brain tissue was homogenized with a 1:4 ratio of tissue: PBS (pH 7.4) and then extracted with a 2-fold volume of methanol:acetonitrile (1:1), while plasma was protein-precipitated with a 3-fold volume with acetonitrile. Analyses were performed by Waters ACQUITY UPLC+Waters XEVO-TQS triple quadrupole mass spectrometer (Admescope Oy, Oulu, Finland). For calculations of the amount of free 3α-ethynyl-3β-hydroxyandrostan-17-one oxime exposure in the brain the fraction unbound (Fb) in brain homogenates were determined by dialysis, Fub in HA=[…] and Fub in PCS=1.43% (Admescope Oy, Oulu, Finland).

Data set [2] has as its system receptors, ion channels and enzymes, including all major classes of neurotransmitter receptors. The data set can be described thus: Binding selectivity screen, 113 targets (Perkin Elmer customized screen). The note with it: 10 μM, duplicate; neurotransmitter related receptors, steroid receptors, peptide receptors. Here is the method: The binding of 3α-ethynyl-3β-hydroxyandrostan-17-one oxime was determined for receptors, ion channels and enzymes, including all major classes of neurotransmitter receptors. In total 113 targets were tested in duplicate with 3α-ethynyl-3β-hydroxyandrostan-17-one oxime at 10 μM (Perkin Elmer, Customized screen). Binding activity was defined as greater than or equal to 50% inhibition of ligand binding.

Read-outs that look alike come from different tables or passages of the source.

One may read the fraction unbound as the share of the substance not bound to proteins or other matrix. For `C#C[C@]1(O)CC[C@@]2(C)C(CC[C@@H]3[C@@H]2CC[C@]2(C)/C(=N\O)CC[C@@H]32)C1` (stereo partly drawn) [3α-ethynyl-3β-hydroxyandrostan-17-one oxime], in the data set with PCS rats (0.7 mg/kg), the “Motor activity (ambulatory counts) during the night” value is 2652±275 counts, the “Night/day ratio of ambulatory activity” value was 1.7±0.2, the “Night/day ratio of vertical activity” value was found to be 2.1±0.4 and the “Vertical activity during the day” value was 339±47 counts. Also, the “Vertical activity during the night” value in the data set with PCS rats (0.7 mg/kg) is 664±121 counts. Also, in the data set on PCS rats (2.5 mg/kg), the “Motor activity (ambulatory counts) during the night” value was found to be 2235±170 counts, the “Night/day ratio of ambulatory activity” value is on record as 1.6±0.3, the “Night/day ratio of vertical activity” value is 1.9±0.6 and the “Vertical activity during the day” value was 424±44 counts. In the data set with PCS rats (2.5 mg/kg), the “Vertical activity during the night” value was 695±185 counts. In addition, the “Spatial learning/memory in the Radial maze (working errors)” value in the data set on hyperammonemic rats is “completely restored”. Besides, the fraction unbound in data set [1] (pH 7.4, HA rats) worked out at 0.007. Moreover, in data set [1] (pH 7.4, PCS rats), the fraction unbound is 0.0143. For the same compound, the “Binding activity (greater than or equal to 50% inhibition of ligand binding)” value in data set [2] was “did not show binding activity”.
